The source of these data is the METLIN SMRT retention time set (Domingo-Almenara et al. 2019).

The structures appear in SMILES notation.

The data set can be described thus: gradient 5% acetonitrile 3 min, to 50% in 2 min, to 85% in 15 min, held 3 min, 100 µL/min. To be noted: column: Zorbax Extend-C18 2.1 x 50 mm; eluents: water / acetonitrile, 0.1% formic acid. The procedure, abridged: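 Data were gathered over 3 months by HPLC coupled to a quadrupole time-of-flight mass spectrometer, operated in positive and negative ionization mode. Mixtures of ~100 pure standards ran on a Zorbax Extend-C18 column (2.1 × 50 mm, 1.8 μm) at 100 μL/min, with water and acetonitrile each containing 0.1% formic acid and dead and dwell volumes of 40 μL and 900 μL. Retention time was read from adduct peaks picked by computer and checked manually.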
With `O=C1c2cccc3c2[C@H](CCC3)CN1[C@@H]1CN2CCC1CC2`, the RP-LC retention time came out at 678 s.

Regarding `Cc1cccc(CN2C(=O)CN(S(=O)(=O)c3ccccc3)CC2(C)C(=O)NCCC(C)C)c1` (stereo unspecified), the RP-LC retention time came to 1030 s.

As to `Nc1ccc(Nc2nc(-c3ccc(Cl)cc3)cs2)cc1`, the RP-LC retention time was 947 s.

In turn, `CCOC(=O)CC(=O)Nc1cc2c(cc1N1CCCC1)n(C)c(=O)n2C` registered an RP-LC retention time of 587 s.

As to `O=C(COc1ccc(Cl)cc1Cl)NCc1ccsc1`, the RP-LC retention time is 920 s.

As to `COc1ccccc1C(=O)NCCc1c[nH]c2ccc(Cl)cc12`, the RP-LC retention time was 640 s.

As for `CC(C)C(NC(=O)Cc1ccccc1Cl)C(=O)Nc1nc2ccccc2[nH]1` (stereo unspecified), the RP-LC retention time amounted to 731 s.

The molecule `CCOC(=O)c1ccc2nc(C(F)(F)F)nc(NCCCN3CCOCC3)c2c1` had an RP-LC retention time of 658 s.

`O=C(c1ccc(OCC2CCCN2C(=O)CC2CCCCC2)cc1)N1CCOCC1` (stereo unspecified) gave an RP-LC retention time of 829 s.

Take `O=C(Cc1nnc(-c2ccc3ncccc3c2)o1)N1CCN(C2CCCCC2)CC1`: the RP-LC retention time is 574 s.

For `Cc1cc(C)n(Cc2c(C(=O)NCC34CCC=C3N(C)C(=O)CC4)noc2C)n1` (stereo unspecified), the RP-LC retention time amounted to 749 s.

`Cc1ccc(CN2C[C@@H]3C(=O)N(Cc4ccc5c(c4)OCO5)C(=O)[C@@H]3C2)c(C)c1` showed an RP-LC retention time of 857 s.

On to `COc1ccc(C2C(C(=O)N3CCCCC3)c3cc(OC)c(OC)cc3C(=O)N2C)cc1OC` (stereo unspecified), for which the RP-LC retention time is 706 s.

In the case of `CCC(C(=O)NCc1ccc2c(c1)OCO2)n1ccc2cc(S(=O)(=O)N3CCCCC3)ccc21` (stereo unspecified), the RP-LC retention time amounted to 1020 s.

For the molecule `CCCN(c1ccc(F)cc1)c1nc(C(=O)OCC)nc2ccccc12`, the RP-LC retention time was 1080 s.

On to `COC1CCN(CC2CCCCCN2C(=O)Nc2ccc3c(c2)OCCO3)CC1` (stereo unspecified), for which the RP-LC retention time came out at 651 s.

As for `CCOc1ccc(NC(=O)Cn2c(=O)nc(N3CCCC(C)C3)c3ccccc32)cc1` (stereo unspecified), the RP-LC retention time was determined as 845 s.

The molecule `CCc1cccc(NC(=O)c2c(O)c3cccnc3n(-c3ccccc3)c2=O)c1` returned an RP-LC retention time of 1430 s.

`CCN(C(=O)Cc1ccc(OC)cc1)c1nc(-c2ccccc2)cs1` gave an RP-LC retention time of 1260 s.

In turn, `Cc1nc(Nc2ccc(NC(=O)c3ccc(Br)o3)cc2)cc(-n2ccnc2)n1` registered an RP-LC retention time of 587 s.

`CCCN1CCN(c2ncc3c(n2)CCN(Cc2ccc(OC(C)C)cc2)C3)CC1` showed an RP-LC retention time of 581 s.

Take `CCN(CC)C(=O)c1sc(-c2cn(C(C)C)c3ncccc23)nc1C`: the RP-LC retention time was determined as 902 s.

Regarding `Cc1nnc(NC(=O)c2ccc(N3CCCC3)nn2)s1`, the RP-LC retention time was determined as 594 s.

With `CCOC(=O)CNC(=O)C(c1ccccc1)n1cccc1` (stereo unspecified), the RP-LC retention time was determined as 784 s.

In turn, `CCn1cnnc1C1CCCCN1C(=O)Cc1c[nH]c2ccccc12` (stereo unspecified) gave an RP-LC retention time of 649 s.

As to `CCCN1CCCCc2cc(C(=O)NCC(N)=O)sc21`, the RP-LC retention time was determined as 686 s.

The molecule `CC(C)(C)NC(=O)N1CCC(CNC(=O)C(=O)Nc2cccc(N3CCCC3=O)c2)CC1` had an RP-LC retention time of 683 s.

In turn, `O=C(c1ccc(Cl)cc1)N1CCN(c2cc(-c3cccs3)[nH]n2)CC1` returned an RP-LC retention time of 809 s.

Regarding `CCc1nc(OCC(=O)N(CC)c2ccccc2)c2ccccc2n1`, the RP-LC retention time came out at 798 s.

The molecule `COC(=O)C(C)NC(=O)N1CCN(c2nc3ccccc3n3cccc23)CC1` (stereo unspecified) yielded an RP-LC retention time of 605 s.

For the molecule `O=C1C2N=NN(Cc3nc(-c4ccc(Cl)cc4)no3)C2C(=O)N1c1ccc2c(c1)CCC2` (stereo unspecified), the RP-LC retention time came to 1160 s.

The molecule `COc1ccc(-c2nc3ccc(C4=NNC(=O)CC4C)cc3[nH]2)cc1` (stereo unspecified) returned an RP-LC retention time of 654 s.

As for `O=C(NCCOc1ccccc1)c1cccc(Br)c1`, the RP-LC retention time came out at 868 s.

`Cc1ccsc1-c1nnc(CC(=O)N2CCN(Cc3ccc4c(c3)OCO4)CC2)o1` registered an RP-LC retention time of 640 s.

`CC(=O)N1CCN(c2ncc(C(=O)Nc3ccccc3)c(N)n2)CC1` gave an RP-LC retention time of 607 s.

In the case of `CCN(CC)CCn1c(NCc2ccc(C)cc2)nc2ccccc21`, the RP-LC retention time is 584 s.

On to `O=C(Nc1ccc2c(c1)C(=O)NC2=O)c1cccc([N+](=O)[O-])c1`, for which the RP-LC retention time is 696 s.

`O=S(=O)(c1ccccc1Cl)N1CCC(OCc2noc(C3CCCO3)n2)CC1` (stereo unspecified) registered an RP-LC retention time of 912 s.

The molecule `Cn1cc(Cl)c(C(=O)N2CCCC2c2cccc(F)c2)n1` (stereo unspecified) showed an RP-LC retention time of 807 s.

The molecule `CCCc1cc(N2CCN(C(=O)C3CCN(C(C)=O)CC3)CC2)nc2nnc(CC)n12` returned an RP-LC retention time of 587 s.

In turn, `Cc1ccccc1Nc1nc(N)nc(CN2CCN(c3ccccn3)CC2)n1` returned an RP-LC retention time of 568 s.

The molecule `CCOc1ccc(-n2nnc(-c3nc(-c4ccccc4OC)cs3)c2N)cc1` displayed an RP-LC retention time of 1170 s.

Molecule `COc1cccc2sc(N3CCN(c4ccccc4)CC3)nc12` gave an RP-LC retention time of 996 s.

As to `O=C(NCC1CCCCC1)c1ccc(CN2C(=O)C3CCCN3C(=O)c3ccccc32)cc1` (stereo unspecified), the RP-LC retention time is 824 s.

With `O=C(NCC1CCCCC1)c1ccc2ncnc(N3CCCC3)c2c1`, the RP-LC retention time is 675 s.

`CC(C)c1nnc2ccc(NC(=O)Nc3ccccc3)cn12` gave an RP-LC retention time of 712 s.

With `CCn1c(CCNC(=O)c2ccc(C)s2)nc2cccnc21`, the RP-LC retention time stood at 634 s.

For `O=C(Cn1cnc2cc3c(cc21)OCCO3)NCc1ccc2c(c1)OCCCO2`, the RP-LC retention time worked out at 596 s.

Consider `COc1ccccc1NC(=O)c1cc2c(s1)CN(C(C)C)C2`, for which the RP-LC retention time is 614 s.

`CCCC(=O)Nc1cc2c(cc1SC(C)C)n(C)c(=O)n2C` showed an RP-LC retention time of 852 s.

`CCc1ccccc1NC(=O)Cc1csc2nc(-c3ccccc3)cn12`: the RP-LC retention time came to 845 s.

The molecule `COc1ccc(CNC(=O)C2CCCN(S(=O)(=O)c3ccc(OC)c(Cl)c3)C2)cc1` (stereo unspecified) showed an RP-LC retention time of 917 s.

`O=C(NCCCc1ccccc1)c1ccc2c(c1)N(CC(=O)N1CCCC1)C(=O)CO2` registered an RP-LC retention time of 706 s.

For `Cc1cc(=O)n(CCc2ccccc2)c(N2CCSCC2)n1`, the RP-LC retention time turned out to be 897 s.

As for `COc1ccc(N2CCN(c3cc(SCC(=O)NC4CCCCC4)ncn3)CC2)cc1`, the RP-LC retention time came to 875 s.

In turn, `Cc1ccc2c(c1)N(S(C)(=O)=O)CCC(C(=O)NC1CCCCC1)O2` (stereo unspecified) registered an RP-LC retention time of 914 s.

Consider `COc1ccccc1-c1cc2nc(C)cc(N3CCN(c4ccccn4)CC3)n2n1`, for which the RP-LC retention time was found to be 580 s.

In turn, `Brc1c(Br)c(Br)c2[nH]cnc2c1Br` displayed an RP-LC retention time of 979 s.

As to `Cc1nc(-c2ccccc2OC2CN(S(=O)(=O)c3c(C)noc3C)C2)no1`, the RP-LC retention time turned out to be 904 s.

In turn, `CC1CCCCN1CCNC(=O)c1cc2c(s1)N(C)CCCC2` (stereo unspecified) yielded an RP-LC retention time of 672 s.

In turn, `CCN1c2ccccc2C(=O)NC12CCN(C(=O)Nc1ccc3c(c1)OCO3)CC2` yielded an RP-LC retention time of 737 s.

Turning to `COc1ccc(Cl)c2c(=O)c3c([nH]c12)CCN(CC(=O)NCc1ccc(Cl)cc1)C3`, the RP-LC retention time is 762 s.

As for `CCOc1ccccc1NC(=O)CSc1nnc(Cc2ccccc2)n1-n1cccc1`, the RP-LC retention time was 948 s.

The molecule `Cc1cc(N2CCN(C(=O)Nc3cccc(F)c3)CC2)nc(N2CCCC2)n1` displayed an RP-LC retention time of 680 s.

The molecule `Cc1cccc(OCc2nnc(SCC(=O)Nc3nc(-c4ccccc4)c(C)s3)o2)c1` had an RP-LC retention time of 932 s.

In turn, `Cn1c(C2CCN(C(=O)Nc3ccc(Cl)cc3F)CC2)cc(=O)n2nccc12` came in with an RP-LC retention time of 670 s.

`Cc1noc(-c2ccc(NC(=O)C3CC(=O)N(c4ccccc4)C3)cc2)n1` (stereo unspecified) came in with an RP-LC retention time of 727 s.

As for `COc1cc([C@@H]2c3cc4c(cc3[C@H](O)[C@@H](CO)[C@@H]2C(=O)N2CCc3ccccc32)OCO4)cc(OC)c1OC`, the RP-LC retention time was found to be 771 s.

The molecule `COc1ccc(-c2noc(-c3nc(-c4ccc(OC)c(OC)c4)no3)n2)cc1OC` had an RP-LC retention time of 1080 s.

Take `CCCc1ccc(S(=O)(=O)N2C[C@@H](F)C[C@H]2C(=O)N2CCc3ccccc3C2)cc1`: the RP-LC retention time amounted to 1060 s.

Molecule `COc1cc(=O)c(C(=O)Nc2cccc(SC)c2)nn1-c1cccc(F)c1` showed an RP-LC retention time of 805 s.

`c1ccc(C2CNCc3ccccc32)cc1` (stereo unspecified) yielded an RP-LC retention time of 698 s.

`NCC(O)C1CCCCCCC1` (stereo unspecified) returned an RP-LC retention time of 633 s.

As to `COc1ccc2c3c([nH]c2c1)[C@H](C=C(C)C)N1C(=O)[C@@H]2CCCN2C(=O)[C@@H]1C3`, the RP-LC retention time was found to be 871 s.

`COc1ccc2c(NCCCCCCNc3c4ccccc4nc4cc(OC)ccc34)c3ccccc3nc2c1` gave an RP-LC retention time of 655 s.

In the case of `COc1ccc(NC(=O)c2sc3[nH]c(=O)c(C(=O)O)cc3c2N)c(OC)c1`, the RP-LC retention time stood at 681 s.

As for `CCC(=O)N1CCc2ccc(C(=O)NC3CCCCC3)cc21`, the RP-LC retention time is 800 s.

The molecule `O=C(Nc1cccc(-c2ccc(N3CCCC3)nn2)c1)c1c(F)cccc1F` returned an RP-LC retention time of 647 s.

The molecule `COc1ccc(OC)c(S(=O)(=O)Cc2nc(-c3cccc(Br)c3)no2)c1` had an RP-LC retention time of 1030 s.

`CC(C)(C)NC(=O)N1CCC(CNC(=O)C(=O)Nc2cc(F)ccc2F)CC1` displayed an RP-LC retention time of 811 s.

`CSc1ccc(Cc2nnc(NC(=O)c3nn(C)cc3C)o2)cc1` gave an RP-LC retention time of 694 s.
